Assay results: ChEMBL document CHEMBL1687752, “Impact of antifungal prophylaxis on colonization and azole susceptibility of Candida species” (2009)
In brackets after ≈: the same amount, converted by molar mass.

How the values were obtained:
Assay type in all cases: functional
Pichia kudriavzevii [1] = test: Antifungal activity against 8 days cultured Candida krusei isolated from neutropenic subject with AML or MDS pharynx after 12 days of prophylaxis by broth microdilution method
Nakaseomyces glabratus [2] = test: Antifungal activity against 111 days cultured Candida glabrata isolated from HSCT recipient with acute or chronic GVHD mouth receiving antifungal therapy for 143 days after 116 days of prophylaxis by broth microdilution method
Nakaseomyces glabratus [3] = test: Antifungal activity against 16 days cultured Candida glabrata isolated from HSCT recipient with acute or chronic GVHD mouth receiving antifungal therapy for 31 days after 28 days of prophylaxis by broth microdilution method
Pichia kudriavzevii [4] = test: Antifungal activity against 8 days cultured Candida krusei isolated from neutropenic subject with AML or MDS stool after 12 days of prophylaxis by broth microdilution method
Nakaseomyces glabratus [5] = test: Antifungal activity against 36 days cultured Candida glabrata isolated from neutropenic subject with AML or MDS pharynx after 48 days of prophylaxis by broth microdilution method
Candida albicans [6] = test: Antifungal activity against Candida albicans isolated from HSCT recipient 031 with acute or chronic GVHD mouth receiving antifungal drug after 109 days prophylaxis by broth microdilution method
Candida tropicalis [7] = test: Antifungal activity against -3 days cultured Candida tropicalis isolated from neutropenic subject with AML or MDS pharynx receiving antifungal therapy for 45 days after 24 days of prophylaxis by broth microdilution method
Nakaseomyces glabratus [8] = test: Antifungal activity against Candida glabrata isolated from neutropenic subject 1318 with AML or MDS stool receiving antifungal drug after 36 days prophylaxis by broth microdilution method
Pichia kudriavzevii [9] = test: Antifungal activity against 1 day cultured Candida krusei isolated from neutropenic subject with AML or MDS pharynx receiving antifungal therapy for 19 days after 6 days of prophylaxis by broth microdilution method
Candida tropicalis [10] = test: Antifungal activity against 2 days cultured Candida tropicalis isolated from neutropenic subject with AML or MDS stool receiving antifungal therapy for 45 days after 24 days of prophylaxis by broth microdilution method
Nakaseomyces glabratus [11] = test: Antifungal activity against Candida glabrata isolated from neutropenic subject 1102 with AML or MDS stool after 26 days prophylaxis by broth microdilution method; conditions: 624 h
Nakaseomyces glabratus [12] = test: Antifungal activity against Candida glabrata isolated from neutropenic subject 1318 with AML or MDS stool after 36 days prophylaxis by broth microdilution method
Nakaseomyces glabratus [13] = test: Antifungal activity against Candida glabrata isolated from neutropenic subject 1102 with AML or MDS stool receiving antifungal drug after 26 days prophylaxis by broth microdilution method; conditions: 624 h
Nakaseomyces glabratus [14] = test: Antifungal activity against Candida glabrata isolated from HSCT recipient 975 with acute or chronic GVHD mouth receiving antifungal drug after 112 days prophylaxis by broth microdilution method
Nakaseomyces glabratus [15] = test: Antifungal activity against Candida glabrata isolated from HSCT recipients with acute or chronic GVHD receiving fluconazole assessed as maximum MIC by broth microdilution method
Candida albicans [16] = test: Antifungal activity against Candida albicans isolated from neutropenic subjects with AML or MDS receiving posaconazole assessed as maximum MIC by broth microdilution method
Candida albicans [17] = test: Antifungal activity against Candida albicans isolated from HSCT recipients with acute or chronic GVHD prior to initiation of posaconazole therapy by broth microdilution method
Pichia kudriavzevii [18] = test: Antifungal activity against 16 days cultured Candida krusei isolated from neutropenic subject with AML or MDS pharynx receiving antifungal therapy for 19 days after 6 days of prophylaxis by broth microdilution method
Nakaseomyces glabratus [19] = test: Antifungal activity against 29 days cultured Candida glabrata isolated from neutropenic subject with AML or MDS pharynx after 48 days of prophylaxis by broth microdilution method
Nakaseomyces glabratus [20] = test: Antifungal activity against Candida glabrata isolated from HSCT recipient 474 with acute or chronic GVHD mouth receiving antifungal drug after 124 days prophylaxis by broth microdilution method
Nakaseomyces glabratus [21] = test: Antifungal activity against Candida glabrata isolated from HSCT recipients with acute or chronic GVHD prior to initiation of posaconazole therapy assessed as maximum MIC by broth microdilution method
Nakaseomyces glabratus [22] = test: Antifungal activity against Candida glabrata isolated from HSCT recipient 807 with acute or chronic GVHD mouth receiving antifungal drug after 114 days prophylaxis by broth microdilution method
Nakaseomyces glabratus [23] = test: Antifungal activity against 31 days cultured Candida glabrata isolated from HSCT recipient with acute or chronic GVHD mouth receiving antifungal therapy for 31 days after 28 days of prophylaxis by broth microdilution method
Pichia kudriavzevii [24] = test: Antifungal activity against 13 days cultured Candida krusei isolated from invasive fungal infected subject blood after 12 days of prophylaxis by broth microdilution method
Saccharomyces cerevisiae = test: Antifungal activity against Saccharomyces cerevisiae isolated from HSCT recipient 513 with acute or chronic GVHD mouth receiving antifungal drug after 112 days prophylaxis by broth microdilution method
Nakaseomyces glabratus [25] = test: Antifungal activity against 43 days cultured Candida glabrata isolated from HSCT recipient with acute or chronic GVHD mouth receiving antifungal therapy for 168 days after 113 days of prophylaxis by broth microdilution method
Nakaseomyces glabratus [26] = test: Antifungal activity against Candida glabrata isolated from neutropenic subject 1331 with AML or MDS pharynx receiving antifungal drug after 21 days prophylaxis by broth microdilution method; conditions: 504 h
Candida albicans [27] = test: Antifungal activity against Candida albicans isolated from HSCT recipients with acute or chronic GVHD prior to initiation of fluconazole therapy by broth microdilution method
Nakaseomyces glabratus [28] = test: Antifungal activity against Candida glabrata isolated from HSCT recipient 975 with acute or chronic GVHD mouth after 112 days prophylaxis by broth microdilution method
Candida albicans [29] = test: Antifungal activity against Candida albicans isolated from HSCT recipient 301 with acute or chronic GVHD mouth receiving antifungal drug after 114 days prophylaxis by broth microdilution method
Nakaseomyces glabratus [30] = test: Antifungal activity against Candida glabrata isolated from HSCT recipient 270 with acute or chronic GVHD mouth receiving antifungal drug after 108 days prophylaxis by broth microdilution method
Nakaseomyces glabratus [31] = test: Antifungal activity against Candida glabrata isolated from neutropenic subjects with AML or MDS receiving posaconazole by broth microdilution method
Nakaseomyces glabratus [32] = test: Antifungal activity against Candida glabrata isolated from HSCT recipient 270 with acute or chronic GVHD mouth after 108 days prophylaxis by broth microdilution method
Nakaseomyces glabratus [33] = test: Antifungal activity against Candida glabrata isolated from HSCT recipient 002 with acute or chronic GVHD mouth receiving antifungal drug after 116 days prophylaxis by broth microdilution method
Candida albicans [34] = test: Antifungal activity against Candida albicans isolated from HSCT recipient 928 with acute or chronic GVHD mouth receiving antifungal drug after 112 days prophylaxis by broth microdilution method
Candida albicans [35] = test: Antifungal activity against Candida albicans isolated from HSCT recipients with acute or chronic GVHD receiving fluconazole assessed as maximum MIC by broth microdilution method
Candida albicans [36] = test: Antifungal activity against Candida albicans isolated from HSCT recipient 262 with acute or chronic GVHD mouth receiving antifungal drug after 115 days prophylaxis by broth microdilution method
Nakaseomyces glabratus [37] = test: Antifungal activity against Candida glabrata isolated from HSCT recipient 807 with acute or chronic GVHD mouth after 114 days prophylaxis by broth microdilution method
Nakaseomyces glabratus [38] = test: Antifungal activity against 29 days cultured Candida glabrata isolated from neutropenic subject with AML or MDS stool after 48 days of prophylaxis by broth microdilution method
Nakaseomyces glabratus [39] = test: Antifungal activity against Candida glabrata isolated from neutropenic subjects with AML or MDS prior to initiation of posaconazole therapy assessed as maximum MIC by broth microdilution method

## CC[C@@H]([C@H](C)O)n1ncn(-c2ccc(N3CCN(c4ccc(OC[C@@H]5CO[C@@](Cn6cncn6)(c6ccc(F)cc6F)C5)cc4)CC3)cc2)c1=O [POSACONAZOLE]
Pichia kudriavzevii [1]
  MIC: 0.125 µg/mL (≈ 0.178 µM)
Nakaseomyces glabratus [2]
  MIC: 4 µg/mL (≈ 5.71 µM)
Nakaseomyces glabratus [3]
  MIC: < 0.5 µg/mL
Pichia kudriavzevii [4]
  MIC: 0.125 µg/mL (≈ 0.178 µM)
Nakaseomyces glabratus [5]
  MIC: 1 µg/mL (≈ 1.43 µM)
Candida albicans [6]
  MIC: < 0.015 µg/mL
Candida tropicalis [7]
  MIC: < 0.015 µg/mL
Nakaseomyces glabratus [8]
  MIC: 8 µg/mL (≈ 11.4 µM)
Pichia kudriavzevii [9]
  MIC: 0.06 µg/mL (≈ 0.0856 µM)
Candida tropicalis [10]
  MIC: < 0.015 µg/mL
Nakaseomyces glabratus [11]
  MIC: 0.25 µg/mL (≈ 0.357 µM)
Nakaseomyces glabratus [12]
  MIC: 0.5 µg/mL (≈ 0.713 µM)
Nakaseomyces glabratus [13]
  MIC: > 8 µg/mL
Nakaseomyces glabratus [14]
  MIC: 4 µg/mL (≈ 5.71 µM)
Nakaseomyces glabratus [15]
  MIC: 16 µg/mL
Candida albicans [16]
  MIC: 0.03 µg/mL
Candida albicans [17]
  MIC50: 0.016 µg/mL (≈ 0.0228 µM)
  MIC90: 0.06 µg/mL (≈ 0.0856 µM)
Pichia kudriavzevii [18]
  MIC: 0.25 µg/mL (≈ 0.357 µM)
Nakaseomyces glabratus [19]
  MIC: 8 µg/mL (≈ 11.4 µM)
Nakaseomyces glabratus [20]
  MIC: 4 µg/mL (≈ 5.71 µM)
Nakaseomyces glabratus [21]
  MIC: 8 µg/mL
Nakaseomyces glabratus [22]
  MIC: > 8 µg/mL
Nakaseomyces glabratus [23]
  MIC: < 0.5 µg/mL
Pichia kudriavzevii [24]
  MIC: 0.25 µg/mL (≈ 0.357 µM)
Saccharomyces cerevisiae
  MIC: 4 µg/mL (≈ 5.71 µM)
Nakaseomyces glabratus [25]
  MIC: 2 µg/mL (≈ 2.85 µM)
Nakaseomyces glabratus [26]
  MIC: 8 µg/mL (≈ 11.4 µM)
Candida albicans [27]
  MIC50: 0.016 µg/mL (≈ 0.0228 µM)
  MIC90: 0.03 µg/mL (≈ 0.0428 µM)
Nakaseomyces glabratus [28]
  MIC: 0.25 µg/mL (≈ 0.357 µM)
Candida albicans [29]
  MIC: 0.03 µg/mL (≈ 0.0428 µM)
Nakaseomyces glabratus [30]
  MIC: 1 µg/mL (≈ 1.43 µM)
Nakaseomyces glabratus [31]
  MIC50: 0.5 µg/mL (≈ 0.713 µM)
  MIC90: 4 µg/mL (≈ 5.71 µM)
Nakaseomyces glabratus [32]
  MIC: 0.06 µg/mL (≈ 0.0856 µM)
Nakaseomyces glabratus [33]
  MIC: 4 µg/mL (≈ 5.71 µM)
Candida albicans [34]
  MIC: > 8 µg/mL
Candida albicans [35]
  MIC: 16 µg/mL
Candida albicans [36]
  MIC: < 0.015 µg/mL
Nakaseomyces glabratus [37]
  MIC: 0.25 µg/mL (≈ 0.357 µM)
Nakaseomyces glabratus [38]
  MIC: 1 µg/mL (≈ 1.43 µM)
Nakaseomyces glabratus [39]
  MIC: 4 µg/mL

## CCC(C)n1ncn(-c2ccc(N3CCN(c4ccc(OCC5COC(Cn6cncn6)(c6ccc(Cl)cc6Cl)O5)cc4)CC3)cc2)c1=O (stereo unspecified) [ITRACONAZOLE]
Pichia kudriavzevii [1]
  MIC: 0.25 µg/mL (≈ 0.354 µM)
Nakaseomyces glabratus [2]
  MIC: > 8 µg/mL
Nakaseomyces glabratus [3]
  MIC: < 1 µg/mL
Pichia kudriavzevii [4]
  MIC: 0.25 µg/mL (≈ 0.354 µM)
Nakaseomyces glabratus [5]
  MIC: 1 µg/mL (≈ 1.42 µM)
Candida albicans [6]
  MIC: 0.06 µg/mL (≈ 0.085 µM)
Candida tropicalis [7]
  MIC: 0.03 µg/mL (≈ 0.0425 µM)
Nakaseomyces glabratus [8]
  MIC: > 8 µg/mL
Pichia kudriavzevii [9]
  MIC: 0.125 µg/mL (≈ 0.177 µM)
Candida tropicalis [10]
  MIC: < 0.015 µg/mL
Nakaseomyces glabratus [11]
  MIC: 1 µg/mL (≈ 1.42 µM)
Nakaseomyces glabratus [12]
  MIC: 0.25 µg/mL (≈ 0.354 µM)
Nakaseomyces glabratus [13]
  MIC: > 8 µg/mL
Nakaseomyces glabratus [14]
  MIC: 8 µg/mL (≈ 11.3 µM)
Nakaseomyces glabratus [15]
  MIC: 32 µg/mL
Candida albicans [16]
  MIC: 0.03 µg/mL
Candida albicans [17]
  MIC50: 0.03 µg/mL (≈ 0.0425 µM)
  MIC90: 0.06 µg/mL (≈ 0.085 µM)
Pichia kudriavzevii [18]
  MIC: 0.5 µg/mL (≈ 0.709 µM)
Nakaseomyces glabratus [19]
  MIC: 8 µg/mL (≈ 11.3 µM)
Nakaseomyces glabratus [20]
  MIC: 8 µg/mL (≈ 11.3 µM)
Nakaseomyces glabratus [21]
  MIC: 8 µg/mL
Nakaseomyces glabratus [22]
  MIC: > 8 µg/mL
Nakaseomyces glabratus [23]
  MIC: < 1 µg/mL
Pichia kudriavzevii [24]
  MIC: 0.25 µg/mL (≈ 0.354 µM)
Saccharomyces cerevisiae
  MIC: 4 µg/mL (≈ 5.67 µM)
Nakaseomyces glabratus [25]
  MIC: 2 µg/mL (≈ 2.83 µM)
Nakaseomyces glabratus [26]
  MIC: 8 µg/mL (≈ 11.3 µM)
Candida albicans [27]
  MIC50: 0.03 µg/mL (≈ 0.0425 µM)
  MIC90: 0.06 µg/mL (≈ 0.085 µM)
Nakaseomyces glabratus [28]
  MIC: 0.25 µg/mL (≈ 0.354 µM)
Candida albicans [29]
  MIC: 0.25 µg/mL (≈ 0.354 µM)
Nakaseomyces glabratus [30]
  MIC: 1 µg/mL (≈ 1.42 µM)
Nakaseomyces glabratus [31]
  MIC50: 0.5 µg/mL (≈ 0.709 µM)
  MIC90: 8 µg/mL (≈ 11.3 µM)
Nakaseomyces glabratus [32]
  MIC: 0.125 µg/mL (≈ 0.177 µM)
Nakaseomyces glabratus [33]
  MIC: > 8 µg/mL
Candida albicans [34]
  MIC: > 8 µg/mL
Candida albicans [35]
  MIC: 16 µg/mL
Candida albicans [36]
  MIC: 0.06 µg/mL (≈ 0.085 µM)
Nakaseomyces glabratus [37]
  MIC: 0.5 µg/mL (≈ 0.709 µM)
Nakaseomyces glabratus [38]
  MIC: 1 µg/mL (≈ 1.42 µM)
Nakaseomyces glabratus [39]
  MIC: 8 µg/mL
